From patent publication US9622988B2, “Small molecule xanthine oxidase inhibitors and methods of use” (Baylor College of Medicine, priority 2012, dated 2017)

Experiments:
[1] = biological target: T1, XO (Bos taurus, UniProt P80457); assay: Conversion of DHNB to products by XO; assay type: biochemical, bovine; conditions: room temperature
T1 construct: Xanthine oxidase from bovine milk; purchased Sigma Chemical Co. (St. Louis, Mo.); host or cells: bovine milk (natural source)

[2] = Peroxynitrite scavenging assay; conditions: 20 μM (FIG. 7C)
Procedure: Peroxynitrite Scavenging Assay—Peroxynitrite (ONOO^−) was generated by mixing 5 mL acidic solution (0.6 M HCl) of H2O2 (0.7 M) and 5 mL of 0.6 M KNO2 in an ice bath for 1 second and the reaction was quenched with 5 mL of ice-cold 1.2 M NaOH. Residual H2O2 was removed using granular MnO2 prewashed with 1.2 M NaOH and the reaction mixture was then left overnight at −20° C. Concentrations of ONOO^− were determined before each experiment at 302 nm using a molar extinction coefficient of 1,670 M^−1 cm^−1. The final concentrations of reagents used in the assay are as follows: 25 μM ONOO^−, 10 μM DTPA, 5 μM DHR 123, 0.1 M phosphate buffer, pH 7.4. The ONOO^− scavenging assay was performed by monitoring the oxidation of dihydrorhodamine (DHR 123) by ONOO^− spectrophotometrically at 500 nm.

[3] = biological target: Xanthine oxidase from bovine milk (Bos taurus, UniProt P80457); conditions: for inhibition of XO: each compound at 20 μM (FIG. 2); for time course of inhibition of XO activity: 20 nM XO added to 50 μM xanthine and 6.67 μM inhibitor (FIG. 3)
Chain of Xanthine oxidase from bovine milk (P80457 whole entry): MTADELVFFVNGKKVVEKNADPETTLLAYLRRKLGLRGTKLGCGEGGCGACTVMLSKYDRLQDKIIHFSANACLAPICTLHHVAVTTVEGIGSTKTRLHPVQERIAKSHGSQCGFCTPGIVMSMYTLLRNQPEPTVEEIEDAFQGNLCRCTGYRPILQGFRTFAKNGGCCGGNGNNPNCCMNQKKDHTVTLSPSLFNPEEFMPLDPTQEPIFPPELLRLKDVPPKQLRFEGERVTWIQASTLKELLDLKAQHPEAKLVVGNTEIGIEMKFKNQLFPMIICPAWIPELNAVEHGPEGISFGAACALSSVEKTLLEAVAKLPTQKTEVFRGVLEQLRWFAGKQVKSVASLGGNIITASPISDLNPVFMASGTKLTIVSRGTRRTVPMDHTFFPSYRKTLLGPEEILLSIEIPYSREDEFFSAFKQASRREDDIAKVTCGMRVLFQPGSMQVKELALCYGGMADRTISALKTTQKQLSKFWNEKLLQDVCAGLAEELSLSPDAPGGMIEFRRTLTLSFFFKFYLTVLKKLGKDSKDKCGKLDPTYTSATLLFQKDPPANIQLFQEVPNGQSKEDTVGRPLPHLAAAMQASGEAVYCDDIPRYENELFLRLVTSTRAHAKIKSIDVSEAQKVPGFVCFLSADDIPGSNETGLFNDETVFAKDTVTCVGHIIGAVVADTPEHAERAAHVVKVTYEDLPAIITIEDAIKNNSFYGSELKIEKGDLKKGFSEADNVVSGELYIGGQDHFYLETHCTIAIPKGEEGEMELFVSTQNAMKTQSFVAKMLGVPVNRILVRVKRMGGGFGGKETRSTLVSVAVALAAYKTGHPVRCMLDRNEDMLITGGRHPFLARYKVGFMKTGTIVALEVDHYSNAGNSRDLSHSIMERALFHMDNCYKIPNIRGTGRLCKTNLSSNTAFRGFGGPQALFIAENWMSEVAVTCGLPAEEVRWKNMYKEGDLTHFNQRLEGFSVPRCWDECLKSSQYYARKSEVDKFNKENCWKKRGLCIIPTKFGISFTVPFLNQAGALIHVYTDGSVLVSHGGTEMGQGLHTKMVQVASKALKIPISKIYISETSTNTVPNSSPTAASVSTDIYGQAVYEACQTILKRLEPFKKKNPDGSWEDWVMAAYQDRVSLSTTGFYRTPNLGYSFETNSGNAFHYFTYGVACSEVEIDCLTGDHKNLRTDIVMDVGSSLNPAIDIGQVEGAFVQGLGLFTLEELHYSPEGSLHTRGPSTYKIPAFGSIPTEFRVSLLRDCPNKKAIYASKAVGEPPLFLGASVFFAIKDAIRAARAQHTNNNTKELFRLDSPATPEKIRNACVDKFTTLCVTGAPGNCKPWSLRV

[4] = tested on: allantoxanamide induced hyperuricemic mice; assay: Hypouricemic effect in allantoxanamide induced hyperuricemic mice; assay type: in vivo, C57BL/6 mice; conditions: 100 mg/kg oral before 200 mg/kg allantoxanamide i.p., up to 4 hours (FIG. 13)
Procedure: A hyperuricemia mouse model was used. Allantoxanamide, a potent uricase inhibitor, was used to induce hyperuricemia in mice in this study. […] The mice were subsequently intraperitoneally injected with allantoxanamide at 200 mg/kg in 0.5% CMC-Na in a volume of 0.1 ml/10 g mouse body weight just after the tested drug oral administration to increase the serum uric acid level. […] The negative control mice were administered PEG400 only followed by i.p. allantoxanamide. The normal group mice were administered PEG400 only followed by i.p. CMC-Na only. Food and water were withheld overnight prior to the study. Whole blood samples were collected from mice through orbital vein bleeding at the end of the study. The mice were anaesthetized with diethyl ether inside a chamber. The blood was allowed to clot for 1 h at room temperature and then centrifuged at 2350×g for 4 min to obtain the serum. The serum was kept on ice and assayed immediately. Serum uric acid was determined with the phosphotungstate method, as known to those of skill in the art.

[5] = tested on: C57BL/6 mice
[6] = Superoxide scavenging assay (xanthine-xanthine oxidase system, NBT); conditions: 20 μM (FIG. 7D)
Procedure: Superoxide Scavenging Assay—Superoxide (O2^−.) scavenging activity was assayed in the xanthine-xanthine oxidase system and determined by the inhibition of the reduction of nitro blue tetrazolium (NBT) to form blue formazan which has an absorption at 560 nm. The final concentrations of reagents used in the assay are as follows: 16.8 mU xanthine oxidase, 25 μM xanthine, 50 μM NBT, and 0.1 M phosphate buffer (pH 8.5). […] The abilities of polyphenols to scavenge O2^−. were compared with that of GSH.

[7] = Antioxidant activity of polyphenols (summary); conditions: FIG. 7

T1 sequence (P80457 whole entry): as above

SMILES | inhibition of XO [3] | ONOO^− scavenging effect [2] | other results
O=C(O)c1cc(O)c(O)c([N+](=O)[O-])c1 [3,4-dihydroxy-5-nitrobenzoic acid] | – | – | inhibitory effect of the DHNB/XO product on XO [1]: no inhibitory effect on XO
O=C(O)c1ccc(O)c(O)c1 [DHB-COOH, 3,4-dihydroxybenzoic acid, reference compound] | no effect on XO | – | –
O=Cc1cc(O)c(O)c([N+](=O)[O-])c1 [DHNB, 3,4-Dihydroxy-5-nitrobenzaldehyde] | inhibitory effects on XO | strong scavenging effect | serum urate levels (hypouricemic effect) [4]: significantly lowered in 2 hours and maintained at a level just slightly higher than the normal level in 4 hours; histology analysis for the liver, kidney, and heart vs control mice ([5]; mouse, in vivo): did not show any difference; time course of inhibition of XO activity [3]: time-dependent inhibition; XO inhibition after treatment with reducing agents ([3]; 20 μM DHNB, then GSH, DTT or 2-ME 20 mM (FIG. 5)): did not abolish the inhibition; initial rates with increasing xanthine concentrations (Dixon plot) ([3]; DHNB concentration fixed, 1 min pre-incubation (FIG. 1B)): did not change with increasing xanthine concentrations
O.O=Cc1cc(O)c(O)c(O)c1 [THB-CHO, 3,4,5-trihydroxybenzaldehyde hydrate] | inhibitory effects on XO | strong scavenging effect | superoxide scavenging effect [6]: strong scavenging effects on superoxide; IC50 of XO activity inhibition ([3]; 20 nM XO, 50 μM xanthine, phosphate buffer pH 7.4, 25° C.): too high to determine
Oc1ncnc2[nH]ncc12 [allopurinol, reference compound] | – | – | serum urate levels (hypouricemic effect) [4]: significantly lowered the serum urate level close to the normal level; pups died in two days ([5]; 500 mg/kg, total 19 pups of surviving mice): eight; antioxidant activity (scavenging of DPPH, ONOO^−, HOCl, superoxide ion) [7]: does not possess the antioxidant properties; time course of inhibition of XO activity [3]: time-dependent inhibition

Continued, in another order:

inhibition of XO [3] | SMILES | ONOO^− scavenging effect [2] | other results
inhibitory effects on XO | O=Cc1cc(O)c(O)cc1[N+](=O)[O-] [DH6NB, 3,4-Dihydroxy-6-nitrobenzaldehyde] | strong scavenging effect | –
inhibitory effects on XO | O=Cc1ccc(O)c(O)c1 [DHB-CHO, 3,4-dihydroxybenzaldehyde] | strong scavenging effect | –
no effect on XO | COc1ccc(CO)cc1OC [DMB-CH2OH, 3,4-dimethoxybenzyl alcohol, reference compound] | – | –
no inhibition on XO activity | COc1cc(C=O)ccc1O [Vanillin, reference compound] | – | –
no effect on XO | O=C(O)/C=C/c1ccc(O)c(O)c1 [caffeic acid, reference compound] | strong scavenging effect | –
no effect on XO | O=C(O)c1cc(O)c(O)c(O)c1 [gallic acid, reference compound] | strong scavenging effect | –
